{"source": "patent US20250161313A1", "about": "“A METHOD FOR THE TREATMENT OF NEUROPATHY” (INSTITUT NATIONAL DE LA SANTÉ ET DE LA RECHERCHE MÉDICALE, priority 2022, published 2025)", "key": {"mEERL cells": {"test_system": "mEERL cells", "assay": "Tumor size in mEERL syngeneic in vivo tumor model", "settings": "mEERL tumor-bearing mice; cisplatin plus KW6002 vs. cisplatin; FIG. 3E", "method": "(§1) We used a validated murine model of HPV+ oropharyngeal squamous cell carcinoma as previously described (noncommercial) (80). This model consists of oropharyngeal epithelial cells from C57Bl/6 male mice that stably express the HPV16 viral oncogenes E6 and E7, H-Ras, and luciferase (mEERL cells). mEERL cells were grown in a T75 flask until confluent, after which cells were trypsinized and harvested, washed 3 times with sterile PBS, and resuspended in 1 mL sterile PBS to the appropriate concentration. Mice were injected s.c. into the right flank with 20 μL solution containing either 1,000,000 mEERL cells or PBS (vehicle). The day of mEERL cell injection is indicated as day −14. Tumor volume was monitored using Vernier digital calipers. When the tumor volume reached 100 mm3, the mice were randomly ascribed to 1 of the 3 experimental groups (vehicle; cisplatin; or cisplatin plus KW6002)."}, "[1]": {"test_system": "Il6, Tnf, Il1b and Ccl2 expression in DRG and spinal cord", "assay": "mRNA levels of cytokines in spinal cord and DRG (quantitative RT-PCR), sub-chronic cisplatin model", "type": "in vivo, mice", "settings": "8 days after start of cisplatin treatment, vs. cisplatin", "method": "(§2) Animal experiments were adapted from 63-64. Animal procedures were performed in 8 to 10 weeks old male C57B16/J mice (Janvier Labs except for pain experiments, Jackson lab). Mice were fed a laboratory standard diet with water and food ad libitum and were kept under constant environmental conditions with a 12-hour light-dark cycle. Istradefylline (KW-6002; Tocris) was dissolved in a carrier solution consisting in 15% DMSO, 15% cremophor (Sigma), 70% saline solution (vehicle). Cisplatin (Accord Healthcare) was dissolved in saline solution. Neuropathy resulting from of sub-chronic cisplatin was evaluated following six daily i.p. injections of cisplatin (3 mg/kg) starting at day 0 and mice were sacrificed 72h after the last injection of cisplatin (day 8). KW-6002 was administered daily i.p. from day −5 to day 7 (FIG. 2).\nLumbar dorsal root ganglion (DRG) and spinal cord tissues were quickly dissected and snap-frozen in liquid nitrogen.\nFor DRG and spinal cord tissues, total RNA was extracted with phenol/chloroform and subsequently precipitated in isopropanol as described previously (71).\n(§3) Reverse transcription was performed on 1 μg of RNA using high-capacity cDNA reverse transcription kit (Thermo Fisher), according the manufacturer's recommendation. Real time PCR was performed on a StepOne device using Taqman Gene Expression Master Mix (Thermo Fisher), following manufacturer's recommendations. Expression levels of the following genes were evaluated using comparative CT method (2-deltaCT): Tumor Necrosis Factor alpha (Tnfa, Assay ID Mm00443258_m1), Interleukin-6 (Il6, Assay ID Mm00446190_m1), Il1b (assay ID Mm00434228_m1); chemokine (C-C motif) ligand 2 (Ccl2, assay ID Mm00441242_m1). Transcript levels of PPIA (Mm02342430_m1) were used as endogenous control."}, "C57B16/J mice [2]": {"test_system": "C57B16/J mice", "assay": "Mechanical sensitivity (von Frey hairs) in mEERL tumor-bearing mice", "type": "in vivo", "settings": "cisplatin plus KW6002 vs. cisplatin, FIG. 3D", "method": "as §1\n(§4) Mechanical pain sensitivity, a classical read out for CIPN in rodents, was assessed using von Frey filaments as previously described (65-66). Briefly, mice were placed in opaque boxes (10×10×10 cm). After a 30 min habituation period, von Frey filaments were applied, and the paw withdrawal threshold was calculated using the “up & down” method. Behavioral testing was performed by experimenter blinded to treatment and genotype."}, "[3]": {"test_system": "KIM-1, Tnf and Il6 expression", "assay": "Cisplatin-induced nephrotoxicity markers (mRNA) in mEERL tumor-bearing mice", "type": "in vivo", "settings": "cisplatin plus KW6002 vs. cisplatin", "method": "as §1, §3"}, "C57B16/J mice [4]": {"test_system": "C57B16/J mice", "assay": "Mechanical pain sensitivity (von Frey filaments) in sub-chronic cisplatin model", "type": "in vivo", "settings": "KW-6002 3 mg/kg i.p. daily day -5 to day 7; cisplatin 3 mg/kg i.p. for 6 days; vs. cisplatin; FIG. 1A", "method": "as §2, §4"}}, "data": [{"smiles": "CCn1c(=O)c2c(nc(/C=C/c3ccc(OC)c(OC)c3)n2C)n(CC)c1=O", "note": "[KW-6002, 8-[(E)-2-(3,4-dimethoxyphenyl)vinyl]-1,3-diethyl-7-methyl-3,7-dihydro-1H-purine-2,6-dione]", "values": [{"measurement": "tumor control by cisplatin (absolute tumor size)", "setting": "mEERL cells", "value": "significantly potentiated"}, {"measurement": "Tnf mRNA level in spinal cord", "setting": "[1]; KW-6002 3 mg/kg, FIG. 1C", "value": "significantly downregulated"}, {"measurement": "Il6 mRNA level in DRG", "setting": "[1]; KW-6002 3 mg/kg, FIG. 1D", "value": "significantly downregulated"}, {"measurement": "Tnf mRNA level in DRG", "setting": "[1]; KW-6002 3 mg/kg, FIG. 1E", "value": "significantly downregulated"}, {"measurement": "Il 1b mRNA level in DRG", "setting": "[1]; FIG. 1F", "value": "significantly reversed the upregulation"}, {"measurement": "Ccl2 mRNA level in DRG", "setting": "[1]; FIG. 1G", "value": "significantly reversed the upregulation"}, {"measurement": "cisplatin-induced pain hypersensitivity (von Frey)", "setting": "C57B16/J mice [2]", "value": "alleviated"}, {"measurement": "indicator of renal toxicity KIM-1 (mRNA) induced by cisplatin", "setting": "[3]; FIG. 3A", "value": "limited"}, {"measurement": "expression of inflammatory cytokine Tnf induced by cisplatin", "setting": "[3]; FIG. 3B", "value": "limited"}, {"measurement": "expression of inflammatory cytokine Il6 induced by cisplatin", "setting": "[3]; FIG. 3C", "value": "limited"}, {"measurement": "cisplatin-induced pain hypersensitivity (mechanical sensitivity, von Frey)", "setting": "C57B16/J mice [4]", "value": "significantly mitigated pain hypersensitivity"}]}]}
